Experimental findings from US11939308B2, “Biphenyl derivative compound and use thereof” (EWHA UNIVERSITY—INDUSTRY COLLABORATION FOUNDATION, priority 2018, dated 2024) are described below.

One experiment concerns the target recombinant Nm23-H1 (Homo sapiens, UniProt P15531). Description: NDPK assay with recombinant Nm23-H1. The format is biochemical. More on the design: NDPK activity: unit not given here. To be noted: for NDPK activity: 5 ng recombinant Nm23-H1, 10 min room temperature, then 5 μM ADP 1 min, compound concentration not given. Here is the method: NDPK assay was performed by incubating 5 ng of recombinant Nm23-H1 with each of test compounds (Examples 1 to 3) in NDPK assay buffer (20 mM HEPES, 3 mM MgCl2) at room temperature for 10 minutes, followed by reaction with 5 μM ADP for 1 minute.

In experiment [1] the test system is MDA-MB-231 cells. The experiment is described as follows: Matrigel invasion assay. The format is cell-based. To be noted: Transwell with Matrigel, 24 hours at 37° C. Here is the method:
Invasion assay was performed using a Transwell® unit (Corning, USA) with a polycarbonate membrane (pore size: 8 μm), with or without Matrigel coating. The membrane was coated with 50 μg Matrigel™-based membrane matrix (BD Bioscience, USA). 5×10^4 MDA-MB-231 cells were seeded into the upper chamber in a serum-free medium together with the compound of Example 1, and the lower chamber was filled with a medium containing 10% FBS. After incubation for 24 hours at 37° C., the cells on the upper side of the membrane were removed. The cells invading to the underside of the membrane were stained with 0.5% Crystal violet in 25% methanol and counted at 100-fold magnification under a microscope.

In experiment [2] the test system is MDA-MB-231 cells. The experiment is described as follows: Immunofluorescent staining assay (F-actin localization). The format is cell-based. To be noted: Rhodamine-Phalloidin staining, various times. Here is the method: MDA-MB-231 cells were grown on the Secureslip™ (Sigma) cell culture glass cover slip to a confluence of 50 to 70%, and then treated with or without the compound of Example 1 (B038) for various times. The cells were gently washed with cold HBSS, and then fixed with 4% paraformaldehyde-containing HBSS […] for 10 minutes at room temperature. After washing with HBSS, permeabilization with 0.1% Triton X-100 was performed for 10 minutes at room temperature. After washing twice with HBSS, the cells were blocked with 3% BSA, 0.2% Tween20 and 0.2% gelatin in HBSS for 1 hour at room temperature, and incubated with primary antibody at 37° C. for 2 hours. F-actin was stained by Rhodamine-Phalloidin (Thermo Fisher Scientific) for 2 hours at 37° C., followed by washing 3 times with HBSS for 20 minutes. Coverslips were mounted with an anti-fading solution and viewed using an ×63 objective lens of an LSM510 META (Zeiss) laser scanning confocal microscope.

recombinant Nm23-H1, sequence (P15531 whole entry): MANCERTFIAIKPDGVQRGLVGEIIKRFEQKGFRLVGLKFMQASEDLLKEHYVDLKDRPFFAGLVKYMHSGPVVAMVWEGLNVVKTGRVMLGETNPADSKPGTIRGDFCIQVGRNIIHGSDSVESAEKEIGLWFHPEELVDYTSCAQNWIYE

`COc1ccc(C(=O)Nc2ccccc2-c2ccc(OC)c(OC)c2)cc1OC` [Example 4, N-(3′,4′-dimethoxy-[1,1′-biphenyl]-2-yl)-3,4-dimethoxybenzamide]: the NDPK activity at recombinant Nm23-H1 is on record as 1.52.
Same read-out and setting: with `COc1cc(-c2ccccc2CCc2ccc(OC)c(OC)c2)ccc1O` [Example 5, 2′-(3,4-dimethoxyphenethyl)-3-methoxy-[1,1′-biphenyl]-4-ol] the figure was 4.
As to `COc1ccc(CCc2ccccc2-c2ccc(OC)c(OC)c2)cc1OC` [Example 1], on recombinant Nm23-H1, the NDPK activity is recorded as 6.55. Besides, at recombinant Nm23-H1 (various concentrations), the “NDPK activity-increasing effect at various concentrations (FIG. 1)” value was “excellent effect of increasing NDPK activity even at low concentrations”. In addition, the “cell invasion (counting invaded cells, FIGS. 2A and 2B)” value in the experiment on MDA-MB-231 cells [1] is reported as “significantly suppressed cell invasion”. Further, the “localization of F-actin (ruffles, cell-to-cell contact; FIG. 3)” value with MDA-MB-231 cells [2] was “ruffles decreased and cell-to-cell contact increased”.
`COc1cc(CCc2ccccc2-c2ccc(OC)c(OC)c2)ccc1O` [Example 10, 4-(2-(3′,4′-dimethoxy-[1,1′-biphenyl]-2-yl)ethyl)-2-methoxyphenol]: the NDPK activity at recombinant Nm23-H1 turned out to be 2.6.
On the same count and under the same terms, as for `COc1ccc(NC(=O)c2ccccc2-c2ccc(OC)c(OC)c2)cc1OC` [Example 3, N-(3,4-dimethoxyphenyl)-3′,4′-dimethoxy-[1,1′-biphenyl]-2-carboxamide], the figure is 1.32.
Still for that read-out and setting: with `COc1ccc(-c2ccccc2C2OC2c2ccc(OC)c(OC)c2)cc1OC` (centres unmarked) [Example 2, 2-(3′,4′-dimethoxy-[1,1′-biphenyl]-2-yl)-3-(3,4-dimethoxyphenyl)oxirane] the figure was 4.08.
The same measure, in the same setting: with `COc1ccc(CCc2ccccc2-c2ccc(OC)c(OC)c2)cc1O` [Example 7, 5-(2-(3′,4′-dimethoxy-[1,1′-biphenyl]-2-yl)ethyl)-2-methoxyphenol] the figure was 3.5; with `COc1ccc(-c2ccccc2CCc2ccc(OC)c(OC)c2)cc1O` [Example 6, 2′-(3,4-dimethoxyphenethyl)-4-methoxy-[1,1′-biphenyl]-3-ol], 1.9.
